Oligonucleotides are written 5' to 3', each unit as a sugar letter and its base; * is a phosphorothioate linkage, no mark a phosphodiester; rarer units and linkages stand in square brackets, end groups in braces. Plain capitals give the bases only. d = 2'-deoxy (DNA); {P} = phosphate
Experiments:
Type in all cases: cell-based, human
[1] = test system: E2F1, p53, p53 phosphorylated at serine 15; assay: Western blot of E2F1, p53 and phospho-p53 in neonatal fibroblasts
Procedure: Cells were plated at a density of 180,000 cells/ml in RPMI 1640 medium supplemented with 3% FBS. Cells were treated with 40 μM of either of the oligonucleotides for 72 hours. Cells were then collected, washed and fixed for 30 minutes in 4% paraformaldehyde and then permeabilized with 0.1% Triton X-100 for 2 minutes. The TUNEL assay was carried out with components and instructions of the In Situ Cell Death Detection Kit using fluorescein-labeled dUTP from Boehringer Mannheim. TUNEL-positive cells were detected by FACS analysis and confocal microscopy. Cellular Uptake of Oligonucleotides For confocal analysis, Jurkat cells were plated on Permanox chamber slides (Lab-Tek, Naperville, Ill.) and treated for 4 hours with fluorescein phosphoramidite (FAM)-labeled oligonucleotides (Research Genetics, Inc., Huntsville, Ala.). Adherent cells were fixed in 4% paraformaldehyde in PBS, stained with propidium iodide (PI) to identify nuclei, mounted with Slowfade reagent (Molecular Probes, Eugene, Oreg.), covered with a coverslip and stored at 4° C. in the dark. Uptake of the oligonucleotides was assessed in 5–10 μm sections with a Carl Zeiss LSM 510 confocal laser microscope. Computer images assign green to the FAM-oligonucleotides, red to PI, and yellow to co-localization of the signals. FACS analysis was performed on Jurkat cells identically treated with the FAM-oligonucleotides for 4 hours, then fixed in 0.5 ml of 4% paraformaldehyde overnight at 4° C. Fluorescence was measured on the FL-1 channel. Western Blot Analysis and Antibodies Western blot analysis was performed as previously described [Eller, M. S., et al., (1996), Proc Natl Acad Sci USA 93, 1087–1092]. Antibody Ab-6 (DO-1 clone, Oncogene Research Products, Cambridge, Mass.) detected p53; antibody KH95 (Santa Cruz Biotechnology, Inc., Santa Cruz, Calif.) detected E2F1; antibody Ab-4 (Oncogene Research products) detected p73. Phospho-p53 (serine 15) was detected using the #9284 polyclonal antibody and phospho-p95/Nbs1 (serine 343) was detected by a phospho-p95/Nbs1-specific polyclonal antibody, both antibodies from Cell Signaling Technology (Beverly, Mass.). p95/Nbs1 antibody (#NB-100-143, Novus Biologicals, Littleton, Colo.) and an actin antibody (I-19, Santa Cruz Biotechnology, Santa Cruz, Calif.) were also used. Modification of p95/Nbs1 Jurkat and SCC12F cells were cultured and treated with the oligonucleotides as described above. After the indicated times, total protein was collected and analyzed by 8% PAGE and western blot using a polyclonal antibody to p95/Nbs1 (#NB-100-143, Novus Biologicals, Littleton, Colo.). Immunoprecipitation and treatment with a serine/threonine phosphatase was performed as described by Lim et al. [Lim, D. S. et al., Nature 404:613–617, 2000]. Transient Transfection and Expression of TRF2^DN The Ad TRF2^DN expression vector was the kind gift of Dr. Titia deLange (Rockefeller University). The control vector, pCMV LUC was the gift of Dr. M. Hedayati, Johns Hopkins University. Cells were plated at a density of 3.5×10^3 cells/cm^2. One day later, the cultures were transfected with 1 μg plasmid DNA/35 mm culture dish, using the Fugene 6 Transfection Reagent (Roche Molecular Biochemicals, Indianapolis, Ind.), following the protocol supplied by the manufacturer. Cells were collected at the indicated times after transfection and p95/Nbs1 was examined by western blot as described. Telomere Length Normal human fibroblasts were cultured for 5 days in the presence of either diluent or 40 μM 11mer-1, -2 or -3. The cells were then collected and the genomic DNA isolated using the DNeasy Tissue Kit (Qiagen, Valencia, Calif.). Telomere length was determined essentially as described by van Steensel and de Lange (van Steensel, B. and T. de Lange. 1997, Nature 385: 740–743) using the Telo TAGGG Telomere Length Assay from Roche Molecular Biochemicals (Indianapolis, Ind.) and the protocol supplied by the manufacturer. […]

p53 = p53 immunoperoxidase staining in fibroblasts; settings: normal neonatal fibroblasts; 100 μM; within 24 hours
Procedure: The effect of pTpT on the level and intracellular distribution of p53 in normal neonatal fibroblasts was examined by immunoperoxidase staining using a p53-specific monoclonal antibody (mAb 421, Oncogene, Cambridge, Mass.). Preconfluent cultures were treated with either 100 μM pTpT or diluent for 24 hours before cell staining. Cells were first fixed for one minute in Histochoice fixative (Amresco, Solon, Ohio) followed by a five-minute rinse in PBS. p53 was detected using the Vectastain Elite ABC kit (Vector Laboratories, Burlingame, Calif.) and the p53-specific monoclonal antibody mAb 421.

SOD2 = SOD2 western blot in fibroblasts; settings: 100 μM
Procedure: Fibroblasts (newborn human) were maintained in Dulbecco's Modified Eagle Medium (DMEM) supplemented with 10% calf serum (CS) and 100 μM pTpT or diluent as control. Total cellular proteins were harvested at different intervals after stimulation and processed for western blot analysis. The blot was reacted with anti SOD2 antibodies (The Binding Site, Inc. San Diego, Calif.). […] Coomassie blue-stained residual bands on the gel confirmed uniform loading of the different lanes.

[2] = test system: squamous carcinoma line SCC12F; assay: Cell yields of UVA-irradiated SCC12F cells after pretreatment; settings: 100 μM 3 days pretreatment; 10 J/cm^2 UVA
Procedure: Cells from the well differentiated squamous carcinoma line SCC12F (gift of Dr. James Rheinwald, Harvard University) were treated with 100 μM pTpT or diluent as control for 3 days. Then cells were re-plated in medium lacking pTpT and were sham- or UV-irradiated with 10 J/cm^2 UVA (Sellas Sunlight UVA lamp). Cell yields were determined at different intervals after UV irradiation.

Row | Substance | E2F1 increase peaked after [1] [h] | increase in E2F1 seen as early as [1] [h] | phosphorylated p53 (serine 15) first detected at [1] [h] | increase in E2F1 compared to diluent or 11mer-2 treated controls ([1]; 40 μM, 24 hours, densitometry) | increase in p53 compared to diluent or 11mer-2 treated controls ([1]; 40 μM, 48 hours) | increase in p53 compared to diluent or 11mer-2 treated controls ([1]; 40 μM, 72 hours) | p53 protein phosphorylated at serine 15 ([1]; sustained through at least 48 hours) | intranuclear p53 (p53) | SOD2 protein induction (SOD2) | yields of UVA irradiated cells [2]
1 | pGTTAGGGTTAG (DNA {P}-dGdTdTdAdGdGdGdTdTdAdG) [SEQ ID NO: 5] | 12 to 24 | 4 | 4 | 170–250% | 60–300% | 240–380% | striking and selective increase |  |  | 
2 | thymidine dinucleotide [pTpT] |  |  |  |  |  |  |  | an increase in intranuclear p53 | SOD2 induction was sustained at least through 32 hours | increased the yields of UVA irradiated cells

Source: patent US7033829B2, “Method to inhibit cell growth using oligonucleotides” (Trustees of Boston University, priority 2000, dated 2006)
